The values that follow come from patent US20190015400A1, “Antifungal Compositions” (priority 2017, published 2019).

For data set [1], the system named is C. glabrata ATCC 2001 (strain H). Nature of the data set: MIC and checkerboard assay, azoles + compounds 1-5. Format: cell-based, Candida glabrata. The protocol:
(§1) These compounds were serially diluted (two-fold dilutions) horizontally on the plate in 100 μL of RPMI medium. A diluted yeast culture (25 μL of a fungal stock with OD600 of 0.125 in 10 mL of RPMI medium, which achieves a final inoculum size of around 1-5×10^3 CFU/mL) was plated across the plate (100 μL per well), making a final volume of 200 μL total per well.
(§2) The appropriate range of concentrations for each compound was determined based on their corresponding MIC values against each fungal strain. The inoculum size for yeast and filamentous fungi were the same as in the MIC experiments described in section 2.2. The 96-well plates were incubated at 35° C. for 48 h for yeasts and 72 h for the Aspergillus strain before visual inspection for growth. […] The combinational effect of the two tested compounds were considered synergistic (abbreviated SYN) if FICI<0.5, additive (abbreviated ADD) if 0.5<FICI<4, and antagonistic if FICI>4 (TABLES 2-4).

Data set [2] concerns C. albicans ATCC 64124 (strain F). Kind of data set: MIC and checkerboard assay, azoles + compounds 1-5. Format: cell-based, Candida albicans. The following applies: for MIC in combination: MIC of the labelled drug; for MICalone: drug alone; for fold reduction in MIC (combination vs alone): reduction for the labelled drug. The protocol:
as §1, §2

For data set [3], the system named is C. albicans ATCC 10231 (strain B). Nature of the data set: MIC and checkerboard assay, azoles + compounds 1-5. Format: cell-based, Candida albicans. The protocol:
as §1, §2

Data set [4] has as its system C. albicans ATCC 64124 (strain F) biofilm. Nature of the data set: Biofilm disruption assay (XTT, SMIC99), azoles + compound 2. The format is cell-based, Candida albicans. The note with it: for FICI / Interp.: biofilm. The protocol: In order to investigate the synergistic effect of azoles and our compounds on inhibiting biofilm formation of C. albicans ATCC 64124 (strain F), we performed a biofilm disruption assay in a checkerboard setup and used XTT [2,3-bis(2-methoxy-4-nitro-5-sulfophenyl)-2H-tetrazolium-5-carboxanilide] reduction to examine the metabolic activity of the biofilm. Briefly, C. albicans ATCC 64124 (strain F) was grown overnight in YEPD broth at 35° C. The culture was then diluted to an OD600 of 0.12 (equivalent to 1×10^6 CFU/mL) and 100 μL was placed into each well of a 96-well plate. The cells were incubated at 37° C. for 24 h for growth. The following day, the spent medium containing planktonic cells was aspirated and each wells were carefully washed three times with sterile phosphate buffer saline (PBS). […] The negative control (medium only) and the positive control (biofilm plus medium) wells were also included in the same 96-well plate. The plates were then incubated at 37° C. statically for additional 24 h and then washed with sterile PBS. 100 μL of a XTT (0.5 mg/mL)/menadione (1 μM) solution was added to each well, covered with aluminum foil, and incubated for 2 h at 37° C. Then, 80 μL of the colored supernatant from each well was transferred to a new 96-well plate, and the absorption was read at OD490. The percent metabolic activity of the formed biofilm at various drug concentration combinations was calculated by dividing the metabolic activity of biofilm formed for that well by that of the biofilm formed in the growth control well (in the absence of any drug). For these experiments, the sessile MIC (SMIC99) was determined, which is defined as the drug concentration required to inhibit the metabolic activity of biofilm by 99% compared to the growth control. The assay for each combination was performed in duplicates.

Data set [5] deals with Aspergillus terreus ATCC MYA-3633 (strain I). Kind of data set: MIC and checkerboard assay, azoles + compounds 1-5. The format is cell-based. The note with it: in combination with POS. As to the method: as §1, §2
The test system of data set [6] is C. albicans ATCC 64124 (strain F). Nature of the data set: Time-kill assay, azoles + compound 2. The format is cell-based, Candida albicans. The protocol: Each sample was incubated at 35° C. with shaking at 200 rpm. At various time points (0, 3, 6, 9, 12, and 24 h), 100 μL aliquots were taken from each sample and serially diluted (10-fold dilutions) in sterile ddH2O. 100 μL of each dilution was spread onto PDA plates and incubated at 35° C. for 48 h before colony counts were determined (FIGS. 2A-B). At the end of the 24-h experiment, 50 μL of 1 mM sterile resazurin solution was added to each sample for visual comparison of growth. Each experiment was performed in duplicate.

The test system of data set [7] is C. albicans ATCC 90819 (strain G). Nature of the data set: MIC and checkerboard assay, azoles + compounds 1-5. The format is cell-based, Candida albicans. The protocol:
as §1, §2

The test system of a further data set is J774A.1 cells. Nature of the data set: Mammalian cytotoxicity assay, azoles and compound 2. An excerpt:
(§3) David K. Orren (University of Kentucky, Lexington, Ky.) and Prof. David J. Feola (University of Kentucky, Lexington, Ky.), respectively.

The test system of a further data set is BEAS-2B cells. Described as above. The format is cell-based, human.
From the text: as §3

The next data set has as its system HEK-293 cells. The description is as above. The format is cell-based, human.
From the text: as §3

The mark [8] stands for this setting: combination with POS at 8×MICcombo.
[9] abbreviates: combination with VOR at 8×MICcombo.
[10] abbreviates: azole 16 μg/mL + 8 μg/mL compound 2.
[11] abbreviates: azole at any concentration + 32 μg/mL compound 2.
Where [12] appears, read: drug alone, up to highest concentration tested (azoles 16 μg/mL, compound 2 64 μg/mL).

Entries after “also recorded” stand apart in the source; their conditions may differ.

On to `O=C(CCCN1CCC(O)(c2ccc(Br)cc2)CC1)c1ccccc1` [Compound 1], for which the “combinational effect (FICI interpretation)” value (“combinational effect” for short) was “partial synergy” in [1] (in combination with POS); “strong additive effect” in data set [1] (in combination with VOR); “synergy; also recorded: synergistic interactions” in data set [2] (in combination with POS); “partial synergy” in [2] (in combination with VOR); “partial synergy” in data set [3] (in combination with POS); “partial synergy” in data set [3] (in combination with VOR).

With `O=C(CCCN1CCC(O)(c2ccc(Br)cc2)CC1)c1ccc(F)cc1` [Compound 2, bromperidol], the FICI amounted to 1.02 in data set [4] (in combination with POS), 1.02 in [4] (in combination with VOR), 0.56 in data set [2] (in combination with ITC) and 0.16 in data set [2] (in combination with POS). Besides, the Interp. result in data set [4] (in combination with POS) and in data set [4] (in combination with VOR) was “ADD*” each time. In addition, in data set [4] (compound alone, sessile cells), the “SMIC alone (μg/mL) Cpd” value was greater than 128 µg/mL. Moreover, the “SMIC combo (μg/mL) Cpd” value in data set [4] (compound in combination with POS) and in [4] (compound in combination with VOR) was 128 µg/mL throughout. Also, the “combinational effect” value is recorded as “synergy; also recorded: synergistic” in data set [5]; “partial synergy” in [1] (in combination with POS); “partial synergy” in data set [1] (in combination with VOR); “partial synergy” in data set [2] (in combination with ITC); “partial synergy” in data set [2] (in combination with KTC); “synergy” in [2] (in combination with POS). For the same compound, the “combinational effect” value in data set [2] (in combination with VOR) is listed as “synergy”; in data set [7] (in combination with POS), “synergy”; in [7] (in combination with VOR), “synergy”; in data set [3] (in combination with ITC), “partial synergy”; in [3] (in combination with KTC), “partial synergy”; in data set [3] (in combination with POS), “partial synergy”. In addition, the “combinational effect” value in data set [3] (in combination with VOR) was “partial synergy”. In [6] (setting [8]), the “CFU/mL throughout 24 h” value is “around 1×10^5 CFU/mL”. The time-kill effect entry in [6] (setting [8]) and in data set [6] (setting [9]) was “fungistatic effect” in each case. The “reduction in CFU/mL over 24 h” value in [6] (setting [9]) is given as “about 1 log10 unit”. For the same compound, the “increase in CFU/mL” value in data set [6] (drug alone at the concentration of the 8×MICcombo sample, 24 h) is on record as “about 1 order of magnitude”. For the same compound, the results for the MIC in combination in data set [2] (combination compound 2 + ITC) and in [2] (combination compound 2 + POS) were 64 µg/mL and 4 µg/mL, respectively. Also, the MICalone in data set [2] is 128 µg/mL. Also, the cell survival stood at 72±14% in the data set on J774A.1 cells (drug alone at 16 μg/mL), 50±7% in the data set on J774A.1 cells (drug alone at 32 μg/mL) and 30±4% with J774A.1 cells (drug alone at 64 μg/mL). In addition, the “highest concentration at which no cytotoxicity was observed” value in the data set with J774A.1 cells (drug alone, stated for all three cell lines (BEAS-2B, HEK-293, J774A.1), J774A.1 limiting) worked out at 8 µg/mL.

As to `O=C(CCCN1CCC(O)(c2ccc(Br)cc2)CC1)c1ccc(Cl)cc1` [Compound 3], the “combinational effect” value in data set [2] (in combination with KTC) is recorded as “partial synergy”; in data set [2] (in combination with POS), “synergy; also recorded: synergistic interactions”; in [2] (in combination with VOR) it was “partial synergy; also recorded: synergistic interactions”; in data set [3] (in combination with KTC), “partial synergy”; in data set [3] (in combination with POS), “partial synergy”; in data set [3] (in combination with VOR) it was “partial synergy”.

As for `O=C(CCCN1CCC(O)(c2ccc(Br)cc2)CC1)c1ccc(Br)cc1` [Compound 4], the “combinational effect” value in data set [1] (in combination with POS) was “synergistic; also recorded: strong synergy”; in [2] (in combination with KTC) it was “partial synergy”; in data set [2] (in combination with POS), “synergistic interactions”; in data set [2] (in combination with VOR), “Partial synergy”; in [3] (in combination with KTC), “partial synergy”.

Take `COc1ccc(C(=O)CCCN2CCC(O)(c3ccc(Br)cc3)CC2)cc1` [Compound 5]: the “combinational effect” value in data set [5] is “synergistic”; in data set [1] (in combination with POS), “partial synergy”; in data set [2] (in combination with POS), “synergistic interactions”; in data set [2] (in combination with VOR), “strong additive effect”; in data set [3] (in combination with VOR) it was “Partial synergy”. In addition, the “fold reduction in MIC (combination vs alone)” value in data set [2] (combination compound 5 + VOR) turned out to be 16 fold. Also, in data set [2], the MICalone is greater than 128 µg/mL. The FICI in data set [2] (in combination with POS) is 0.13.

With `CCC(C)n1ncn(-c2ccc(N3CCN(c4ccc(OCC5COC(Cn6cncn6)(c6ccc(Cl)cc6Cl)O5)cc4)CC3)cc2)c1=O` (stereo not drawn) [ITC, itraconazole], in data set [2] (combination compound 2 + ITC), the MIC in combination amounted to 2 µg/mL and the “fold reduction in MIC (combination vs alone)” value came out at 16 fold.

As for `C[C@@H](c1ncncc1F)[C@](O)(Cn1cncn1)c1ccc(F)cc1F` [VOR, voriconazole], the “SMIC alone (μg/mL) Azole” value in [4] (azole alone, sessile cells) is greater than 32 µg/mL. Besides, in data set [4] (azole in combination with compound 2), the “SMIC combo (μg/mL) Azole” value came out at 0.5 µg/mL. For the same compound, the cytotoxicity result in the data set on BEAS-2B cells (setting [10]) is listed as “no toxicity”; in the data set with BEAS-2B cells (setting [11]), “no toxicity”; in the data set on BEAS-2B cells (setting [12]), “No cytotoxic effect”; in the data set with HEK-293 cells (setting [10]), “no toxicity”; in the data set on HEK-293 cells (setting [11]) it was “no toxicity”; in the data set with HEK-293 cells (setting [12]), “No cytotoxic effect”. For the same compound, the cytotoxicity result in the data set with J774A.1 cells (setting [10]) was “no toxicity”; in the data set on J774A.1 cells (drug alone, any concentration tested (up to 16 μg/mL)) it was “No cytotoxic effect”. Moreover, in data set [2] (combination compound 5 + VOR), the MIC in combination is 2 µg/mL.
